Laboratory results from patent US10660877B2 (BRISTOL-MYERS SQUIBB COMPANY, priority 2016, dated 2020).
Like-named read-outs stand apart in the source and are kept apart here.

Key:
[1] = molecular target: human TLR7 (Homo sapiens (Human), UniProt Q9NYK1); assay: TLR7 inhibition reporter assay (HEK-Blue cells, SEAP reporter, gardiquimod stimulation); assay type: cell-based; conditions: HEK-Blue cells overexpressing human TLR7, gardiquimod 7.5 μM
[2] = molecular target: human TLR8 (Homo sapiens (Human), UniProt Q9NR97); assay: TLR8 inhibition reporter assay (HEK-Blue cells, SEAP reporter, R848 stimulation);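 note: compounds tested from 0.05 nM to 50 µM, 22 h at 37 °C, SEAP measured with HEK-Blue Detection, inhibition relative to agonist plus DMSO versus a known inhibitor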
Chain of human TLR8 (Q9NR97 27-1041): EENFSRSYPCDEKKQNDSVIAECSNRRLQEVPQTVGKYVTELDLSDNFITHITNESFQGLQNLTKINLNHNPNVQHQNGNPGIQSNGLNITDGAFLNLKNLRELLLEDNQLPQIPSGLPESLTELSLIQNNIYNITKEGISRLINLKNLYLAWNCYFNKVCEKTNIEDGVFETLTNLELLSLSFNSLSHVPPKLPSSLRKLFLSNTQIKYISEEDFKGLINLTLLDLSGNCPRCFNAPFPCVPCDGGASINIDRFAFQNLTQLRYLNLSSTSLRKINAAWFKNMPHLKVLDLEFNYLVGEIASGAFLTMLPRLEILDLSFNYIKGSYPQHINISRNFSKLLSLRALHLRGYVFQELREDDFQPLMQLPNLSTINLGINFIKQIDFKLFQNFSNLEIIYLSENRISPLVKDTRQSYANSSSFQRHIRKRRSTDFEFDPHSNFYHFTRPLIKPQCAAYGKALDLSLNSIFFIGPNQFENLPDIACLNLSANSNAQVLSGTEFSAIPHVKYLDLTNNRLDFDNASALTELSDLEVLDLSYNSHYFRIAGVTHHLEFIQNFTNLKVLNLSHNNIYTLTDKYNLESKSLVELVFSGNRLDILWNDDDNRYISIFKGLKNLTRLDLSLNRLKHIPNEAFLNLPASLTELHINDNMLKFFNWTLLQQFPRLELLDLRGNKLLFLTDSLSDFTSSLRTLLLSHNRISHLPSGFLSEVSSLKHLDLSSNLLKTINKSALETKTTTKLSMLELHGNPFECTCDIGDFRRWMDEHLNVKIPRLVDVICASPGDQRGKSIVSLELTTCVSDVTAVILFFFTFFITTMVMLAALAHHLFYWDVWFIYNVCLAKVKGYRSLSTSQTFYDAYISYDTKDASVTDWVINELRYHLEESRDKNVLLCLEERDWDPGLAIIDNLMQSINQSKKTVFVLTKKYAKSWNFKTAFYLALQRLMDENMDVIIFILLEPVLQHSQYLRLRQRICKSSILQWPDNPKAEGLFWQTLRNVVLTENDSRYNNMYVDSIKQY

[3] = molecular target: human TLR9 (Homo sapiens (Human), UniProt Q9NR96); assay: TLR9 inhibition reporter assay (HEK-Blue cells, SEAP reporter, ODN2006 stimulation);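 note: compounds tested over 0.05 nM to 50 µM, 22 h incubation, inhibition taken as SEAP signal drop from agonist plus DMSO wells toward a known inhibitor control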
Chain of human TLR9 (Q9NR96 26-1032): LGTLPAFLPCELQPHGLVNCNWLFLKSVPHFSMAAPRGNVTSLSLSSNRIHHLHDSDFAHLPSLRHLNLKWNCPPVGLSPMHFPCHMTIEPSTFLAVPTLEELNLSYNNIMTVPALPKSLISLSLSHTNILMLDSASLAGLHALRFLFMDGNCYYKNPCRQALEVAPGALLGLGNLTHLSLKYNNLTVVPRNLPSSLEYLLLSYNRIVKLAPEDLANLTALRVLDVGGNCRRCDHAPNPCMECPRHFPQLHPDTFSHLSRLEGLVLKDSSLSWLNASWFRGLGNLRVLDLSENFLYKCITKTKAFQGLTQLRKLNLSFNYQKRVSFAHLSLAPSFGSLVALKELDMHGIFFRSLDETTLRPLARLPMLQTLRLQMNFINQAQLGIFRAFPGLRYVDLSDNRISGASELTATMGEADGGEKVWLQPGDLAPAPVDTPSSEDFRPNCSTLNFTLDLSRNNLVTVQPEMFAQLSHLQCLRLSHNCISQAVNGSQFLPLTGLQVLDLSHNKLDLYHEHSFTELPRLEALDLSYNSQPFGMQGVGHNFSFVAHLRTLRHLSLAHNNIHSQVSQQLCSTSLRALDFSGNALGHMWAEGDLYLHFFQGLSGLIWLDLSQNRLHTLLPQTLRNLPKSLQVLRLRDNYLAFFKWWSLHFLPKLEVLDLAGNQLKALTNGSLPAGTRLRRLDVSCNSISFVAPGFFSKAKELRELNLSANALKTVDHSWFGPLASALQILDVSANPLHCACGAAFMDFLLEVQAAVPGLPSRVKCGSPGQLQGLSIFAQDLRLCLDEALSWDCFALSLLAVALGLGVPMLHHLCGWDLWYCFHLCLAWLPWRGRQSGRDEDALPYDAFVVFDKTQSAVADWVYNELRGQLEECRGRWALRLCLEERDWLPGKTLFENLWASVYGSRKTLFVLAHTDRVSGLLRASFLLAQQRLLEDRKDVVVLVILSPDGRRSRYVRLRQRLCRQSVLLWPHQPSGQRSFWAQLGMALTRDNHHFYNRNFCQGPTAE

[4] = read-out: TLR8 IC50, HEK-Blue cells overexpressing human TLR8, R848 15.9 μM
[5] = read-out: TLR9 IC50, HEK-Blue cells overexpressing human TLR9, ODN2006 5 nM

Chain of human TLR7 (Q9NYK1 27-1049): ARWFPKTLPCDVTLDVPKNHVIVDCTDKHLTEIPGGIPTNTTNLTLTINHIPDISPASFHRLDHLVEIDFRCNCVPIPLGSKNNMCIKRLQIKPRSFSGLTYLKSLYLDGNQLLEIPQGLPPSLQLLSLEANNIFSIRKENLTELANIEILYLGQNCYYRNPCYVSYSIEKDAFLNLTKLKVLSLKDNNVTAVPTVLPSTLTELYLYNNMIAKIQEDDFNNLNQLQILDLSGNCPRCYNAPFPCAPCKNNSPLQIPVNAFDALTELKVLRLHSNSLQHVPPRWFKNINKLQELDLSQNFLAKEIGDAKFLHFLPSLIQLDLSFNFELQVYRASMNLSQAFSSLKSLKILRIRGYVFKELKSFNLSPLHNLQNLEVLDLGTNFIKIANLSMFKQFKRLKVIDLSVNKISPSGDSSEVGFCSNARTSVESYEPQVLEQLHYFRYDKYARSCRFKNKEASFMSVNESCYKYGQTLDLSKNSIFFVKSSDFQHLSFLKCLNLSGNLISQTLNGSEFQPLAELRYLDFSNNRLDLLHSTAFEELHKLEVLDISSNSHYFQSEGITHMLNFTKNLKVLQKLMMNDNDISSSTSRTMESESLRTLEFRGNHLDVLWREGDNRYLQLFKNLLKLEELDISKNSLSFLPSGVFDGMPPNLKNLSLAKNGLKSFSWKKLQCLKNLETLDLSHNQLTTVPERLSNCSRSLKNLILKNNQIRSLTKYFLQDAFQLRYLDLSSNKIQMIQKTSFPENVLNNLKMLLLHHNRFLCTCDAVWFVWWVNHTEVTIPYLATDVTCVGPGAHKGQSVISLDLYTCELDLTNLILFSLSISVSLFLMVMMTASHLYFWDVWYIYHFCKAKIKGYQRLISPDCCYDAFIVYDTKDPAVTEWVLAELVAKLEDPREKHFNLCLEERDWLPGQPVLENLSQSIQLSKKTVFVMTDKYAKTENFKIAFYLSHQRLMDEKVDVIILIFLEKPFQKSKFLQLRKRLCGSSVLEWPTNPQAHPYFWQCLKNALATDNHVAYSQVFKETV

Row | Compound | IC50 [1] [nM] | IC50 [2, 4] [nM] | IC50 [3, 5] [nM] | IC50 ([2]; TLR8 IC50, HEK-Blue cells overexpressing human TLR8, R848 15.9 μM) [nM] | IC50 ([3]; TLR9 IC50, HEK-Blue cells overexpressing human TLR9, ODN2006 5 nM) [nM]
1 | CCOCCN1CCC(c2ccc3[nH]c(-c4ccnc(C)c4)c(C(C)C)c3c2)CC1 [Example 659, 5-(1-(2-ethoxyethyl)piperidin-4-yl)-3-isopropyl-2-(2-methylpyridin-4-yl)-1H-indole] | 31.7 | 16.7 | 1450 | – | –
2 | COC[C@@H]1CCCN1CC(=O)N1CCC(c2ccc3[nH]c(-c4cc(C)nc(C)c4)c(C(C)C)c3c2)CC1 [Example 370, (S)-1-(4-(2-(2,6-dimethylpyridin-4-yl)-3-isopropyl-1H-indol-5-yl)piperidin-1-yl)-2-(2-(methoxymethyl)pyrrolidin-1-yl)ethan-1-one] | 4.7 | 28.8 | 889 | – | –
3 | Cc1cc(-c2[nH]c3ccc(C4CCN(C(=O)[C@@H](N)CCCNC(N)=O)CC4)cc3c2C(C)C)ccn1 [Example 564, (S)-1-(4-amino-5-(4-(3-isopropyl-2-(2-methylpyridin-4-yl)-1H-indol-5-yl)piperidin-1-yl)-5-oxopentyl)urea] | 202 | 80.1 | 6560 | – | –
4 | CC(C)c1c(-c2ccncc2NC(=O)C(C)(C)C)[nH]c2ccc(C3CCNCC3)cc12 [Example 37, N-(4-(3-isopropyl-5-(piperidin-4-yl)-1H-indol-2-yl)pyridin-3-yl) pivalamide] | 42700 | 635 | 6100 | – | –
5 | Cc1cc(-c2[nH]c3ccc(C4CCN(CC(C)O)CC4)cc3c2C(C)C)cc(C)n1 (stereo not drawn) [Example 331, 1-(4-(2-(2,6-dimethylpyridin-4-yl)-3-isopropyl-1H-indol-5-yl)piperidin-1-yl)propan-2-ol] | 2.4 | 3.5 | 566 | – | –
6 | CCc1c(-c2ccnc(C)c2)[nH]c2ccc(C3CCN(C[C@@H]4CCNC4)CC3)cc12 [Example 739, (R)-3-ethyl-2-(2-methylpyridin-4-yl)-5-(1-(pyrrolidin-3-ylmethyl)piperidin-4-yl)-1H-indole] | 120 | 8.2 | 96 | – | –
7 | Cc1cc(-c2[nH]c3ccc(C4CCNCC4)cc3c2C(C)C)c(Cl)c(C)n1 [Example 50, 2-(3-chloro-2,6-dimethylpyridin-4-yl)-3-isopropyl-5-(piperidin-4-yl)-1H-indole] | 3.2 | 1.9 | 12700 | – | –
8 | CCc1c(-c2ccnc(C)c2)[nH]c2ccc(C3CCN(C(C)C)CC3)cc12 [Example 672, 3-ethyl-5-(1-isopropylpiperidin-4-yl)-2-(2-methylpyridin-4-yl)-1H-indole] | 252 | 116 | 894 | – | –
9 | CNCCN1CCC(c2ccc3[nH]c(-c4cc(OC)ncc4F)c(C)c3c2)CC1 [Example 756, 2-(4-(2-(5-fluoro-2-methoxypyridin-4-yl)-3-methyl-1H-indol-5-yl)piperidin-1-yl)-N-methylethan-1-amine] | 3120 | 185 | 3300 | – | –
10 | CCC(CC)NC(=O)CN1CCC(c2ccc3[nH]c(-c4cc(C)nc(C)c4)c(C(C)C)c3c2)CC1 [Example 220, 2-(4-(2-(2,6-dimethylpyridin-4-yl)-3-isopropyl-1H-indol-5-yl)piperidin-1-yl)-N-(pentan-3-yl)acetamide] | 13.9 | 36 | 1300 | – | –
11 | Cc1cc(-c2[nH]c3ccc(C4CCN(C5CCCOC5)CC4)cc3c2C(C)C)c(F)cn1 (stereo not drawn) [Example 727, 2-(5-fluoro-2-methylpyridin-4-yl)-3-isopropyl-5-(1-(tetrahydro-2H-pyran-3-yl)piperidin-4-yl)-1H-indole] | 7.3 | 3.5 | 2920 | – | –
12 | Cc1cc(-c2[nH]c3ccc(C4CCN(C(=O)C5CCNCC5)CC4)cc3c2C(C)C)ccn1 [Example 573, (4-(3-isopropyl-2-(2-methylpyridin-4-yl)-1H-indol-5-yl)piperidin-1-yl)(piperidin-4-yl)methanone] | 12.9 | 33.9 | 379 | – | –
13 | Cc1cc(-c2[nH]c3ccc(C4CCN(C(=O)CN5C[C@@H](O)CC5=O)CC4)cc3c2C(C)C)cc(C)n1 [Example 169, (S)-1-(2-(4-(2-(2,6-dimethylpyridin-4-yl)-3-isopropyl-1H-indol-5-yl)piperidin-1-yl)-2-oxoethyl)-4-hydroxypyrrolidin-2-one] | 11.7 | 73.7 | > 50000 | – | –
14 | Cc1cc(-c2[nH]c3ccc(C4CCN(CC(=O)N(C)C)CC4)cc3c2C(C)C)ccn1 [Example 512, 2-(4-(3-isopropyl-2-(2-methylpyridin-4-yl)-1H-indol-5-yl)piperidin-1-yl)-N,N-dimethylacetamide] | 13 | 11.7 | 1060 | – | –
15 | Cc1cc(-c2[nH]c3ccc(C4CCN(C(=O)C5CCNCC5)CC4)cc3c2C(C)C)cc(C)n1 [Example 178, (4-(2-(2,6-dimethylpyridin-4-yl)-3-isopropyl-1H-indol-5-yl)piperidin-1-yl)(piperidin-4-yl)methanone] | 5.4 | 27.3 | 549 | – | –
16 | Cc1cc(-c2[nH]c3ccc(C4CCN(C(=O)CN5CCCC(C)(C)C5)CC4)cc3c2C(C)C)cc(C)n1 [Example 358, 2-(3,3-dimethylpiperidin-1-yl)-1-(4-(2-(2,6-dimethylpyridin-4-yl)-3-isopropyl-1H-indol-5-yl)piperidin-1-yl)ethan-1-one] | 12.9 | 23.7 | 943 | – | –
17 | Cc1cc(-c2[nH]c3ccc(C4CCN(C(=O)[C@@H](N)Cc5c[nH]cn5)CC4)cc3c2C(C)C)ccn1 [Example 574, (S)-2-amino-3-(1H-imidazol-4-yl)-1-(4-(3-isopropyl-2-(2-methylpyridin-4-yl)-1H-indol-5-yl)piperidin-1-yl)propan-1-one] | 82.9 | 15.6 | 851 | – | –
18 | Cc1cc(-c2[nH]c3ccc(C4CCN(C(C)C(=O)N(C)C)CC4)cc3c2CC(F)F)cc(C)n1 (stereo not drawn) [Example 493, 2-(4-(3-(2,2-difluoroethyl)-2-(2,6-dimethylpyridin-4-yl)-1H-indol-5-yl)piperidin-1-yl)-N,N-dimethylpropanamide] | 84.5 | 498 | 1640 | – | –
19 | CCc1c(-c2cc(C)nc(C)c2)[nH]c2ccc(C3CCN(CC(=O)N(C)C)CC3)cc12 [Example 526, 2-(4-(2-(2,6-dimethylpyridin-4-yl)-3-ethyl-1H-indol-5-yl)piperidin-1-yl)-N,N-dimethylacetamide] | 10.5 | 24.7 | 102 | – | –
20 | Cc1cc(-c2[nH]c3ccc(C4CCN(CC(=O)N(C)C)CC4)cc3c2C(C)C)cc(F)n1 [Example 500, 2-(4-(2-(2-fluoro-6-methylpyridin-4-yl)-3-isopropyl-1H-indol-5-yl)piperidin-1-yl)-N,N-dimethylacetamide] | 6.3 | 14.2 | 3320 | – | –
21 | Cc1cc(-c2[nH]c3ccc(C4CCN(S(=O)(=O)C(C)C)CC4)cc3c2C(C)C)ccn1 [Example 544, 3-isopropyl-5-(1-(isopropylsulfonyl)piperidin-4-yl)-2-(2-methylpyridin-4-yl)-1H-indole] | 119 | 245 | 12200 | – | –
22 | CCc1c(-c2cc(C)nc(C)c2)[nH]c2ccc(C3CCNCC3)cc12 [Example 2, 2-(2,6-dimethylpyridin-4-yl)-3-ethyl-5-(piperidin-4-yl)-1H-indole] | 4.7 | 11.2 | 248 | – | –
23 | CCc1c(-c2ccnc(N)c2)[nH]c2ccc(C3CCN(C4CCN(CC(C)C)CC4)CC3)cc12 [Example 773, 4-(3-ethyl-5-(1′-isobutyl-[1,4′-bipiperidin]-4-yl)-1H-indol-2-yl)pyridin-2-amine] | 613 | 114 | 45 | – | –
24 | CCC(CC)NCC(=O)N1CCC(c2ccc3[nH]c(-c4cc(C)nc(C)c4)c(C(C)C)c3c2)CC1 [Example 345, 1-(4-(2-(2,6-dimethylpyridin-4-yl)-3-isopropyl-1H-indol-5-yl)piperidin-1-yl)-2-(pentan-3-ylamino)ethan-1-one] | 12.3 | 34 | 544 | – | –
25 | Cc1cc(-c2[nH]c3ccc(C4CCN(CC(=O)N5C[C@H](C(F)(F)F)C[C@@H]5CO)CC4)cc3c2C(C)C)cc(C)n1 [Example 301, 2-(4-(2-(2,6-dimethylpyridin-4-yl)-3-isopropyl-1H-indol-5-yl)piperidin-1-yl)-1-((2R,4R)-2-(hydroxymethyl)-4-(trifluoromethyl)pyrrolidin-1-yl)ethan-1-one] | 19.6 | 118 | 1580 | – | –
26 | Cc1cc(-c2[nH]c3ccc(C4CCN(C(=O)CCN(C)C5COC5)CC4)cc3c2C(C)C)cc(C)n1 [Example 589, 1-(4-(2-(2,6-dimethylpyridin-4-yl)-3-isopropyl-1H-indol-5-yl)piperidin-1-yl)-3-(methyl(oxetan-3-yl)amino)propan-1-one] | 4.7 | 27.6 | 2110 | – | –
27 | Cc1cc(-c2[nH]c3ccc(C4CCN(C(=O)C5CCNC5)CC4)cc3c2C(C)C)cc(C)n1 (single isomer, unassigned) [Example 181, (4-(2-(2,6-dimethylpyridin-4-yl)-3-isopropyl-1H-indol-5-yl)piperidin-1-yl)(pyrrolidin-3-yl) methanone] | 2.6 | – | – | 21.5 | 537
28 | CCc1c(-c2ccnc(C)c2)[nH]c2ccc(C3CCN(C(=O)C4CCNCC4c4ccccc4)CC3)cc12 (stereo not drawn) [Example 627, (4-(3-ethyl-2-(2-methylpyridin-4-yl)-1H-indol-5-yl)piperidin-1-yl)(3-phenylpiperidin-4-yl)methanone] | 531 | 325 | 546 | – | –
